In PubChem BioAssay (NCI):
Values after ≈ are worked out from the molar mass of the structure shown. Values joined by “and” are separate entries in the source; they are usually repeats but may differ in a detail not shown here. Identical values can stand only once.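 Interpolation was linear, between the two tested concentrations surrounding the appropriate level; five concentrations were tested over 48 hours in 96-well plates. Abbreviation: GI50, concentration required for 50% inhibition of growth. At the TGI there is no net growth.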

Assays:
Experiment in all cases: NCI-60 cell line screen, 48 h
MDA-MB-231 breast = tested on: MDA-MB-231 breast
K-562 leukemia = tested on: K-562 leukemia
HOP-62 NSCLC = tested on: HOP-62 NSCLC
NCI-H23 lung = tested on: NCI-H23 lung
MALME-3M melanoma = tested on: MALME-3M melanoma
CCRF-CEM leukemia = tested on: CCRF-CEM leukemia
LOX IMVI melanoma = tested on: LOX IMVI melanoma
ACHN renal = tested on: ACHN renal
MDA-MB-435 = tested on: MDA-MB-435
IGROV1 ovarian = tested on: IGROV1 ovarian
UO-31 renal = tested on: UO-31 renal
SK-MEL-28 melanoma = tested on: SK-MEL-28 melanoma
EKVX NSCLC = tested on: EKVX NSCLC
PC-3 prostate = tested on: PC-3 prostate
SW-620 colon = tested on: SW-620 colon
SR leukemia = tested on: SR leukemia
MOLT-4 leukemia = tested on: MOLT-4 leukemia
NCI-H460 lung = tested on: NCI-H460 lung
NCI/ADR-RES ovarian = tested on: NCI/ADR-RES ovarian
RXF 393 renal = tested on: RXF 393 renal
SF-295 CNS = tested on: SF-295 CNS
OVCAR-8 ovarian = tested on: OVCAR-8 ovarian
SF-268 CNS = tested on: SF-268 CNS
DU-145 prostate = tested on: DU-145 prostate
A549 NSCLC = tested on: A549 NSCLC
UACC-257 melanoma = tested on: UACC-257 melanoma
MCF7 breast = tested on: MCF7 breast
COLO 205 colon = tested on: COLO 205 colon
MDA-N = tested on: MDA-N
U251 CNS = tested on: U251 CNS

Compound: CC1(C)CC(=O)C2=C(C1)NC(SSC1=C(C#N)C(c3ccc(Br)cc3)C3=C(CC(C)(C)CC3=O)N1)=C(C#N)C2c1ccc(Br)cc1 (centres undefined)
- TGI (MDA-MB-231 breast): > 100 µM and 53.5 µg/mL
- GI50 (K-562 leukemia): 30.8 µg/mL (≈ 39.7 µM)
- TGI (K-562 leukemia): > 100 µM and 76.4 µg/mL
- GI50 (HOP-62 NSCLC): > 150 µg/mL
- TGI (HOP-62 NSCLC): > 100 µM and 150 µg/mL
- GI50 (NCI-H23 lung): > 150 µg/mL
- TGI (NCI-H23 lung): > 100 µM and 150 µg/mL
- GI50 (MALME-3M melanoma): 35.8 µg/mL (≈ 46.1 µM)
- TGI (MALME-3M melanoma): > 100 µM and 98.7 µg/mL
- GI50 (CCRF-CEM leukemia): 34.3 µg/mL (≈ 44.2 µM)
- TGI (CCRF-CEM leukemia): > 100 µM and 107 µg/mL
- GI50 (LOX IMVI melanoma): 22.9 µg/mL (≈ 29.4 µM)
- TGI (LOX IMVI melanoma): > 100 µM and 46.6 µg/mL
- GI50 (ACHN renal): > 150 µg/mL
- TGI (ACHN renal): > 100 µM and 150 µg/mL
- GI50 (MDA-MB-435): 90.8 µg/mL (≈ 117 µM)
- TGI (MDA-MB-435): > 100 µM and 150 µg/mL
- GI50 (IGROV1 ovarian): > 150 µg/mL
- TGI (IGROV1 ovarian): > 100 µM and 150 µg/mL
- GI50 (UO-31 renal): 76.3 µg/mL (≈ 98.3 µM)
- TGI (UO-31 renal): > 100 µM and 150 µg/mL
- GI50 (SK-MEL-28 melanoma): 48.4 µg/mL (≈ 62.3 µM)
- TGI (SK-MEL-28 melanoma): > 100 µM and 131 µg/mL
- GI50 (EKVX NSCLC): > 150 µg/mL
- TGI (EKVX NSCLC): > 100 µM and 150 µg/mL
- GI50 (PC-3 prostate): 91.4 µg/mL (≈ 118 µM)
- TGI (PC-3 prostate): > 100 µM and 150 µg/mL
- GI50 (SW-620 colon): 29.3 µg/mL (≈ 37.7 µM)
- TGI (SW-620 colon): > 100 µM and 56.1 µg/mL
- GI50 (SR leukemia): 22.8 µg/mL (≈ 29.4 µM)
- TGI (SR leukemia): > 100 µM and 66.2 µg/mL
- GI50 (MOLT-4 leukemia): 41.9 µg/mL (≈ 53.9 µM)
- TGI (MOLT-4 leukemia): > 100 µM and 150 µg/mL
- GI50 (NCI-H460 lung): > 150 µg/mL
- TGI (NCI-H460 lung): > 100 µM and 150 µg/mL
- GI50 (NCI/ADR-RES ovarian): 28.9 µg/mL (≈ 37.2 µM)
- TGI (NCI/ADR-RES ovarian): > 100 µM and 64.1 µg/mL
- GI50 (RXF 393 renal): 41.6 µg/mL (≈ 53.5 µM)
- TGI (RXF 393 renal): > 100 µM and 123 µg/mL
- GI50 (SF-295 CNS): > 150 µg/mL
- TGI (SF-295 CNS): > 100 µM and 150 µg/mL
- GI50 (OVCAR-8 ovarian): 48.6 µg/mL (≈ 62.5 µM)
- TGI (OVCAR-8 ovarian): > 100 µM and 150 µg/mL
- GI50 (SF-268 CNS): > 150 µg/mL
- TGI (SF-268 CNS): > 100 µM and 150 µg/mL
- GI50 (DU-145 prostate): > 150 µg/mL
- TGI (DU-145 prostate): > 100 µM and 150 µg/mL
- GI50 (A549 NSCLC): > 150 µg/mL
- TGI (A549 NSCLC): > 100 µM and 150 µg/mL
- GI50 (UACC-257 melanoma): > 150 µg/mL
- TGI (UACC-257 melanoma): > 100 µM and 150 µg/mL
- GI50 (MCF7 breast): > 150 µg/mL
- TGI (MCF7 breast): 150 µg/mL (≈ 193 µM)
- GI50 (COLO 205 colon): > 150 µg/mL
- TGI (COLO 205 colon): > 100 µM and 150 µg/mL
- GI50 (MDA-N): 45.9 µg/mL (≈ 59.1 µM)
- TGI (MDA-N): > 100 µM and 150 µg/mL
- GI50 (U251 CNS): > 150 µg/mL
- TGI (U251 CNS): > 100 µM and 150 µg/mL
